In US9073862B2, “Substituted 2-oxy-quinoline-3-carboxamides as KCNQ2/3 modulators” (Grünenthal GmbH, priority 2010, dated 2015):
pEC50: −log10 of the molar value.

Tests used:
[1] = molecular target: T1, KCNQ2/3 channels (Homo sapiens, UniProt O43525+O43526); assay: Fluorescence assay using a voltage sensitive dye (fluorimetry); format: cell-based; conditions: CHO-K1 cells expressing KCNQ2/3 channels; for Emax: relative to retigabine = 100%, read-out: Fluorimetry % efficacy (retigabine = 100%)
T1 construct: expressed in transfected cells; host or cells: CHO-K1
Method: Method I. Fluorescence Assay Using a Voltage Sensitive Dye (Fluorimetry)
[…] CHO-K1 cells expressing KCNQ2/3 channels are cultivated adherently at 37° C., 5% CO2 and 95% humidity in cell culture bottles (e.g. 80 cm^2 TC flasks, Nunc) with DMEM-high glucose (Sigma Aldrich, D7777) including 10% FCS (PAN Biotech, e.g. 3302-P270521) or alternatively MEM Alpha Medium (1×, liquid, Invitrogen, #22571), 10% fetal calf serum (FCS) (Invitrogen, #10270-106, heat-inactivated) and the necessary selection antibiotics.
Before being sown out for the measurements, the cells are washed with 1×DPBS buffer Ca^2+/Mg^2+-free (e.g. Invitrogen, #14190-094) and detached from the bottom of the culture vessel by using Accutase (PAA Laboratories, #L11-007) (incubation with Accutase for 15 min at 37° C.). The cell number is determined using a CASY™ cell counter (TCC, Schärfe System). Depending on the optimal density for each individual cell line, 20,000-30,000 cells/well/100 μl are seeded onto 96-well Corning™ CellBIND™ assay plates (Flat Clear Bottom Black Polystyrene Microplates, #3340). Freshly seeded cells are then left to settle for one hour at room temperature, followed by incubation for 24 hours at 37° C., 5% CO2 and 95% humidity.
The voltage-sensitive fluorescent dye from the Membrane Potential Assay Kit (Red™ Bulk format part R8123 for FLIPR, MDS Analytical Technologies™) is prepared by dissolving the contents of one vessel Membrane Potential Assay Kit Red Component A in 200 ml of extracellular buffer (ES buffer, 120 mM NaCl, 1 mM KCl, 10 mM HEPES, 2 mM CaCl2, 2 mM MgCl2, 10 mM glucose; pH 7.4). After removal of the nutrient medium, the cells are washed once with 200 μl of ES buffer, then loaded for 45 min at room temperature in 100 μl of dye solution in the dark.
Fluorescence measurements are carried out in a BMG Labtech FLUOstar™, BMG Labtech NOVOstar™ or BMG Labtech POLARstar™ instrument (525 nm excitation, 560 nm emission, Bottom Read mode). After incubation with the dye, 50 μl of the test substances in the desired concentrations, or 50 μl of ES buffer for control purposes, are applied to the wells of the assay plate and incubated for 30 min at room temperature while being shielded from light. The fluorescence intensity of the dye is then measured for 5 min and the fluorescence value F1 of each well is thus determined at a given, constant time. 15 μl of a KCl solution are then added to each well (final concentration of potassium ions 92 mM). The change in fluorescence intensity is subsequently monitored until all the relevant values have been obtained (mainly 5-30 min). At a given time post KCl application, a fluorescence value F2 is determined, in this case at the time of the fluorescence peak.
For calculation, the fluorescence intensity F2 is corrected for the fluorescence intensity F1, and the activity (ΔF/F) of the target compound on the potassium channel is determined as follows:
In order to determine whether a substance has agonistic activity,
[formula] can be related to
[formula] of control wells.
[formula] is determined by adding to the well only the buffer solution instead of the test substance, determining the value F1K of the fluorescence intensity, adding the potassium ions as described above, and measuring a value F2K of the fluorescence intensity. F2K and F1K are then calculated as follows: […]
A substance has an agonistic activity on the potassium channel if
[formula] is greater than
Independently of the comparison of
[formula] it is possible to conclude that a target compound has agonistic activity if
[formula] increases dose dependently.
Calculations of EC50 and IC50 values are carried out with the aid of ‘Prism v4.0’ software (Graph Pad Software™).

[2] = test system: withdrawal reflex of the rat tail (tail flick) in response to a radiant heat beam; assay: Low-intensity tail flick test (rat); format: in vivo; conditions: po, peroral; for ED50: at time of maximum efficacy
Method: Method II. Low-Intensity Tail Flick Test (Rat)
In the low-intensity tail flick test, the determination of the antinociceptive effect of the compounds according to the invention towards an acute noxious thermal stimulus is carried out by measuring the withdrawal reflex of the rat tail (tail flick) in response to a radiant heat beam (analgesia meter; model 2011 of the company Rhema Labortechnik, Hofheim, Germany) according to the method described by D'Amour and Smith (J. Pharm. Exp. Ther. 72, 74 79 (1941). To this end, the rats were placed in a plexiglas restrainer, and a low-intensity radiant heat beam (48° C.) was focused onto the dorsal surface of the tail root. The stimulus intensity was adjusted to result in a mean pre-drug control withdrawal latency of about 7 s, thus also allowing a supraspinal modulation of the spinally mediated acute nociceptive reflex. A cutoff time of 30 s was applied to avoid tissue damage. Male Sprague-Dawley rats (Janvier, Le Genest St. Isle, Frankreich) with weights of 200-250 g were used. 10 rats were used per group. Before administration of a compound according to the invention, the animals were pre-tested twice in the course of five minutes and the mean of these measurements was calculated as the pre-test mean. The antinociceptive effect was determined at 20, 40 and 60 min after peroral compound administration. The antinociceptive effect was calculated based on the increase in the tail withdrawal latency according to the following formula and is expressed as percentage of the maximum possible effect (MPE [%]): MPE=[(T1−T0)/(T2−T0)]*100
In this, T0 is the control latency time before and T1 the latency time after administration of the compound, T2 is the cutoff time and MPE is the maximum possible effect. Employing variant analysis (repeated measures ANOVA) allowed testing of statistically significant differences between the compounds according to the invention and the vehicle group. The significance level was set to p≦0.05. To determine the dose dependency, the particular compound according to the invention was administered in 3-5 logarithmically increasing doses, including a threshold dose and a maximum effective dose, and the ED50 values were determined with the aid of regression analysis. The ED50 calculation was performed at the time of maximum efficacy (usually 20 min after administration of the compounds).

[3] = read-out: Low intensity tail flick, rat, peroral, MPE (dose)

| SMILES | pEC50 [1] | Emax [1] [%] | ED50 [2] [mg/kg] | inhibition in vivo at 6.81 mg/kg ([2]; dose 6.81 mg/kg, read-out: Low intensity tail flick, rat, peroral, MPE (dose)) [%] | inhibition in vivo at 4.64 mg/kg [2, 3] [%] | inhibition in vivo at 10 mg/kg [2, 3] [%] |
| --- | --- | --- | --- | --- | --- | --- |
| CCOc1nc2cc(C(F)(F)F)ccc2c(C)c1C(=O)NCc1ccc(F)cc1 [Example 3, 2-ethoxy-N-[(4-fluorophenyl)-methyl]-4-methyl-7-(trifluoromethyl)-quinoline-3-carboxylic acid amide] | 7.41 | 122 | 2.5 |  |  |  |
| COc1nc2cc(C(F)(F)F)ccc2c(C)c1C(=O)NCc1cccc(F)c1 [Example 4, N-[(3-fluorophenyl)-methyl]-2-methoxy-4-methyl-7-(trifluoromethyl)-quinoline-3-carboxylic acid amide] | 7.14 | 105 | 6.7 |  |  |  |
| COc1nc2cc(C(F)(F)F)ccc2c(C)c1C(=O)NCc1ccc(F)cc1 [Example 5, N-[(4-fluorophenyl)-methyl]-2-methoxy-4-methyl-7-(trifluoromethyl)-quinoline-3-carboxylic acid amide] | 7.24 | 122 |  | 34 |  |  |
| CCOc1nc2cc(C(F)(F)F)ccc2c(C)c1C(=O)NCc1cccc(F)c1 [Example 6, 2-ethoxy-N-[(3-fluorophenyl)-methyl]-4-methyl-7-(trifluoromethyl)-quinoline-3-carboxylic acid amide] | 7.24 | 132 |  |  | 67 |  |
| COCCOc1nc2cc(C(F)(F)F)ccc2c(C)c1C(=O)NCc1cccc(F)c1 [Example 7, N-[(3-fluorophenyl)-methyl]-2-(2-methoxy-ethoxy)-4-methyl-7-(trifluoromethyl)-quinoline-3-carboxylic acid amide] | 7.02 | 92 | 10 |  |  |  |
| COCCOc1nc2cc(C(F)(F)F)ccc2c(C)c1C(=O)NCc1ccc(F)cc1 [Example 8, N-[(4-fluorophenyl)-methyl]-2-(2-methoxy-ethoxy)-4-methyl-7-(trifluoromethyl)-quinoline-3-carboxylic acid amide] | 6.84 | 94 |  |  |  | 22 |
| Cc1c(C(=O)NCc2cccc(F)c2)c(OC(C)C)nc2cc(C(F)(F)F)ccc12 [Example 10, N-[(3-fluorophenyl)-methyl]-2-isopropoxy-4-methyl-7-(trifluoromethyl)-quinoline-3-carboxylic acid amide] | 7.06 | 175 | 3.8 |  |  |  |
| CCOc1nc2cc(C(F)(F)F)ccc2c(OC)c1C(=O)NCc1cccc(F)c1 [Example 12, 2-ethoxy-N-[(3-fluorophenyl)-methyl]-4-methoxy-7-(trifluoremethyl)-quinoline-3-carboxylic acid amide] | 6.98 | 170 |  |  | 27 |  |
| COc1nc2cc(C(F)(F)F)ccc2c(OC)c1C(=O)NCc1cccc(F)c1 [Example 13, N-[(3-fluorophenyl)-methyl]-2,4-dimethoxy-7-(trifluoromethyl)-quinoline-3-carboxylic acid amide] | 6.87 | 147 |  |  |  | 10 |
| COc1nc2cc(C(F)(F)F)ccc2c(OC)c1C(=O)NCc1ccc(F)cc1 [Example 16, N-[(4-fluorophenyl)-methyl]-2,4-dimethoxy-7-(trifluoromethyl)-quinoline-3-carboxylic acid amide] | 6.97 | 159 |  |  |  | 74 |
| CCOc1nc2cc(C(F)(F)F)ccc2c(C)c1C(=O)NCc1ccc(C)c(F)c1 [Example 20, 2-ethoxy-N-[(3-fluoro-4-methyl-phenyl)-methyl]-4-methyl-7-(trifluoromethyl)-quinoline-3-carboxylic acid amide] | 7.14 | 146 |  |  |  | 24 |
| CCOc1nc2cc(C(F)(F)F)ccc2c(C)c1C(=O)NCc1cccc(C)c1 [Example 22, 2-ethoxy-4-methyl-N-(m-tolyl-methyl)-7-(trifluoromethyl)-quinoline-3-carboxylic acid amide] | 7.24 | 111 |  |  |  | 20 |
| COc1nc2cc(F)ccc2c(C)c1C(=O)NCc1ccc(F)cc1 [Example 46, 7-fluoro-N-[(4-fluorophenyl)-methyl]-2-methoxy-4-methyl-quinoline-3-carboxylic acid amide] | 6.52 | 59 |  |  |  |  |
| COc1nc2cc(F)cc(F)c2c(C)c1C(=O)NCc1cccc(F)c1 [Example 47, 5,7-difluoro-N-[(3-fluorophenyl)-methyl]-2-methoxy-4-methyl-quinoline-3-carboxylic acid amide] |  | 43 |  |  |  |  |
| COc1nc2cc(F)c(F)cc2c(C)c1C(=O)NCc1cccc(F)c1 [Example 48, 6,7-difluoro-N-[(3-fluorophenyl)-methyl]-2-methoxy-4-methyl-quinoline-3-carboxylic acid amide] | 6.50 | 96 |  |  |  |  |
| COc1nc2c(F)c(F)ccc2c(C)c1C(=O)NCc1cccc(F)c1 [Example 49, 7,8-difluoro-N-[(3-fluorophenyl)-methyl]-2-methoxy-4-methyl-quinoline-3-carboxylic acid amide] | 6.64 | 70 |  |  |  |  |
| COc1nc2ccccc2c(C(F)(F)F)c1C(=O)NCc1cccc(F)c1 [Example 51, N-[(3-fluorophenyl)-methyl]-2-methoxy-4-(trifluoromethyl)-quinoline-3-carboxylic acid amide] |  | 40 |  |  |  |  |
| CCOc1nc2ccccc2c(C(F)(F)F)c1C(=O)NCc1cccc(F)c1 [Example 52, 2-ethoxy-N-[(3-fluorophenyl)-methyl]-4-(trifluoromethyl)-quinoline-3-carboxylic acid amide] | 6.69 | 67 |  |  |  |  |
| CC(C)Oc1nc2ccccc2c(C(F)(F)F)c1C(=O)NCc1cccc(F)c1 [Example 53, N-[(3-fluorophenyl)-methyl]-2-isopropoxy-4-(trifluoromethyl)-quinoline-3-carboxylic acid amide] | 6.97 | 84 |  |  |  |  |
